In patent US20230157286A1, “METHODS FOR INCREASING SECONDARY METABOLITE PRODUCTION IN CANNABIS” (priority 2021, published 2023):

What was measured:
[1] = test system: cannabis clones of the gelato varietal; settings: in vivo
[2] = test system: cannabis clones of the gelato varietal; assay: Aroma compound analysis of cannabis flower by GCxGC-FID/TOF-MS; format: in vivo; settings: compared with control and G1
Protocol: The major volatile aroma compounds of the flowers from the Cannabis plants were extracted using methanol as a solvent. 200 mg of flower was placed into a scintillation vial followed by mechanical grinding with a plastic disposable spatula. 2 mL of methanol was added to the flower and agitated for 15 minutes, followed by transferring 4 μL of the solution using a filtered syringe to a 20 mL headspace vial and crimped using an electric crimper.
GC×GC analysis was performed using the INSIGHT™ reverse fill flush flow modulator (SepSolve Analytical). This was coupled for data generation to an Agilent 7890B GC and BenchTOF Select Time of flight mass spectrometer (Markes International). Time-of-Flight Mass spectrometry (TOF-MS) was used to identify compounds. Quantification of compounds was done using a flame ionization detector (HD). Sample introduction was done using a Centri Sample Concentration Platform (Markes International). […]
Data was collected, integrated, and analyzed using the ChromSpace software platform (Sepsolve Analytical). Compounds were quantified from GC×GC—FID data with calibration curves using a 40-compound terpene standard (LGC Standards). […]
Three different samples of the plants shown in FIG. 4 were measured to obtain an average.
Three different samples of the plants shown were measured to for each group.

Q: With `COc1ccc2[nH]cc(CCNC(C)=O)c2c1` [melatonin] as the compound, how does the “THC and total cannabinoid concentration / cannabinoid production, in words” value [1] read?
A: increased cannabinoid production relative to the control group

Q: For `O=S(=O)([O-])[O-].[K+].[K+]` [K2SO4, potassium sulfate], which “volatile aroma compound production / aroma content, in words” value [2] is on record?
A: negatively affects

Q: And the “THC and total cannabinoid concentration / cannabinoid production, in words” value [1]?
A: negatively affects
